Where two headings read alike, the source gives them in different places.
Experiments:
[1] = biological target: human plasma kallikrein (Homo sapiens (Human), UniProt P03952); assay: Kallikrein inhibition assay (FLINT) utilizing a quenched AMC peptide substrate; format: biochemical; details: 30 min preincubation, read-out: Kallikrein Kin Inh IC50
Summary of the method: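 Fluorogenic Z-Gly-Pro-Arg-AMC cleavage (50 μM substrate, 2 nM kallikrein, Tris pH 7.5, CaCl2, BSA, CHAPS, 2% DMSO) read kinetically at 340/440 nm for 30 min after 30-min compound pre-incubation. Compounds in 11-point 3-fold series from 1 μM; percent inhibition fitted to four-parameter equation for IC50.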

[2] = biological target: Factor XIa (Homo sapiens (Human), UniProt P03951); assay: Factor XIa inhibition assay (FLINT) utilizing a fluorophore-quencher pair peptide substrate; format: biochemical; details: 30 min preincubation, kinetic reads over 30 min, read-out: FXIa Kin Inh IC50
Factor XIa, sequence (P03951 388-625): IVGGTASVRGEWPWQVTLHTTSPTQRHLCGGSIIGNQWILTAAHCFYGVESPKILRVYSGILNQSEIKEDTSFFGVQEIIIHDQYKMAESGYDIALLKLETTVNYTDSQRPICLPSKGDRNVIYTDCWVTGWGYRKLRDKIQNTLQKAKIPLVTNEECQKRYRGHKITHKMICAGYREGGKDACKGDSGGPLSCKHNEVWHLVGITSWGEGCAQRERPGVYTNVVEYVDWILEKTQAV
Factor XIa, sequence (P03951 19-387 partner): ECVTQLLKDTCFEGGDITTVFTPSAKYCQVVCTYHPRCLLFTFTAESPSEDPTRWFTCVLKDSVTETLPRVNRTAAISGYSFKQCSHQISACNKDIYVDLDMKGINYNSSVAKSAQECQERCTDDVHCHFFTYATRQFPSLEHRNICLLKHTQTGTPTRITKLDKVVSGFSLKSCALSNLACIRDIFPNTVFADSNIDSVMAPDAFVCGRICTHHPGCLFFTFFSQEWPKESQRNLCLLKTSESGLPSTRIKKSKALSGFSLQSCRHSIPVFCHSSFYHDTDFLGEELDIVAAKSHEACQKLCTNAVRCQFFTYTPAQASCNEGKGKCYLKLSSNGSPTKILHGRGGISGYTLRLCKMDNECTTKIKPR
Summary of the method: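 FXIa ([…]) preincubated 30 min with compound (11-point 3-fold dilution, top 100 nM, 2% DMSO), then 15 μM quenched FXI Arg146-based peptide added; Tris pH 7.5, CaCl2, BSA, CHAPS. Fluorescence 485/520 nm read kinetically every 5 min over 30 min at RT; IC50 by 4-parameter fit.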

[3] = kinetic reads over 30 min, Z-Gly-Pro-Arg-AMC substrate 50 μM
[4] = 5Fam-KLTRAETV-K5Tamra substrate 15 μM
[5] = 5Fam-[…]-K5Tamra substrate 15 μM

human plasma kallikrein, sequence (P03952 391-638): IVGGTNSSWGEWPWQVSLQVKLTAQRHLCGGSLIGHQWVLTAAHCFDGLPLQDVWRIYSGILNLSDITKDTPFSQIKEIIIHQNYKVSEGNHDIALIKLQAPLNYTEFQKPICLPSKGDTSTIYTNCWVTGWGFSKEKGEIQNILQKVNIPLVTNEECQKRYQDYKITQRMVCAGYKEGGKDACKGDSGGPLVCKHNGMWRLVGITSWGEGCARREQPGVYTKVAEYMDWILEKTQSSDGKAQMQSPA
human plasma kallikrein, sequence (P03952 20-390 partner): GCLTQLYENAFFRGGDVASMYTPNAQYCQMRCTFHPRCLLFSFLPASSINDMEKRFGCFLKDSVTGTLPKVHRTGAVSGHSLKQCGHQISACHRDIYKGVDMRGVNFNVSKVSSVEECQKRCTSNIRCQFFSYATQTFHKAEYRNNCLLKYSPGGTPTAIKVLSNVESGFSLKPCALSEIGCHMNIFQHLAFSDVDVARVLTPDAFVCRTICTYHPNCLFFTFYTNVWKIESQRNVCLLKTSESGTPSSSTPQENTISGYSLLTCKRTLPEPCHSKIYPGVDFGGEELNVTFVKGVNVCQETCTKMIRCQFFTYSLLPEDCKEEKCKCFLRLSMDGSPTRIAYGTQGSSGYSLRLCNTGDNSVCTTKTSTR

| SMILES | IC50 [1, 3] [µM] | IC50 [2, 4] [nM] | IC50 [2, 5] [nM] | IC50 ([1]; μM, kinetic reads) [µM] |
| --- | --- | --- | --- | --- |
| CCOC(=O)Nc1ncccc1-c1c[nH]c([C@@H]2CC[C@@H]3CC(c4c(-n5cnnn5)ccc(Cl)c4F)=CC(=O)N32)n1 [Example 254, Ethyl N-[3-[2-[(3S,8aR)-7-[3-chloro-2-fluoro-6-(tetrazol-1-yl)phenyl]-5-oxo-2,3,8,8a-tetrahydro-1H-indolizin-3-yl]-1H-imidazol-4-yl]-2-pyridyl]carbamate] | 0.15 | 16.7 |  |  |
| Nc1cc(-c2[nH]c([C@@H]3CC[C@@H]4CC(c5c(-n6cnnn6)ccc(Cl)c5F)=CC(=O)N43)nc2F)c(Cl)cn1 [Example 1, (3S,8aR)-3-[5-(2-Amino-5-chloro-4-pyridyl)-4-fluoro-1H-imidazol-2-yl]-7-[3-chloro-2-fluoro-6-(tetrazol-1-yl)phenyl]-2,3,8,8a-tetrahydro-1H-indolizin-5-one] | 0.0679 | 12.6 |  |  |
| CC(C)(O)COc1nccc(-c2c[nH]c([C@@H]3CC[C@@H]4CC(c5c(-n6cc(C(F)(F)F)nn6)ccc(Cl)c5F)=CC(=O)N43)n2)c1F [Example 191, (3S,8aR)-7-(3-Chloro-2-fluoro-6-(4-(trifluoromethyl)-1H-1,2,3-triazol-1-yl)phenyl)-3-(4-(3-fluoro-2-(2-hydroxy-2-methylpropoxy)pyridin-4-yl)-1H-imidazol-2-yl)-2,3,8,8a-tetrahydroindolizin-5(1H)-one] | 0.0343 |  | 3.8 |  |
| [2H]C1([2H])C[C@@H](c2ncc(-c3ccnc(CO)c3F)[nH]2)N2C(=O)C=C(c3c(-n4cnnn4)ccc(Cl)c3F)C([2H])([2H])[C@]21[2H] [Example 33, (3S,8aR)-7-(3-Chloro-2-fluoro-6-(1H-tetrazol-1-yl)phenyl)-3-(5-(3-fluoro-2-(hydroxymethyl)pyridin-4-yl)-1H-imidazol-2-yl)-2,3,8,8a-tetrahydroindolizin-5(1H)-one-1,1,8,8,8a-d5] | 0.0332 |  | 3.9 |  |
| Cn1nncc1-c1c[nH]c([C@@H]2CCC3CC(c4c(-n5cnnn5)ccc(Cl)c4F)=CC(=O)N32)n1 (stereo partly drawn) [Example 339, (3S)-7-(3-Chloro-2-fluoro-6-(1H-tetrazol-1-yl)phenyl)-3-(4-(1-methyl-1H-1,2,3-triazol-5-yl)-1H-imidazol-2-yl)-2,3,8,8a-tetrahydroindolizin-5(1H)-one] |  | 134 |  | 2.05 |
| N#CCc1nccc(-c2c[nH]c([C@@H]3CC[C@@H]4CC(c5c(-n6cnnn6)ccc(Cl)c5F)=CC(=O)N43)n2)c1F [Example 176, 2-(4-(2-((3S,8aR)-7-(3-chloro-2-fluoro-6-(1H-tetrazol-1-yl)phenyl)-5-oxo-1,2,3,5,8,8a-hexahydroindolizin-3-yl)-1H-imidazol-4-yl)-3-fluoropyridin-2-yl)acetonitrile] | 0.0285 | 4 |  |  |
| O=C1C=C(c2c(C(F)F)ccc(Cl)c2F)C[C@H]2CC[C@@H](c3nc(F)c(-c4ccnc(CO)c4F)[nH]3)N12 [Example 27, (3S,8aR)-7-(3-Chloro-6-(difluoromethyl)-2-fluorophenyl)-3-(4-fluoro-5-(3-fluoro-2-(hydroxymethyl)pyridin-4-yl)-1H-imidazol-2-yl)-2,3,8,8a-tetrahydroindolizin-5(1H)-one] | 0.118 | > 100 |  |  |

Further compounds by falling IC50 [1, 3], results first:

| IC50 [1, 3] [µM] | IC50 [2, 4] [nM] | IC50 [2, 5] [nM] | IC50 ([1]; μM, kinetic reads) [µM] | SMILES |
| --- | --- | --- | --- | --- |
| 0.0268 | 36.1 |  |  | O=C1C=C(c2c(-n3cnnn3)ccc(Cl)c2F)CC2CC[C@@H](c3nc(-c4ccnc(OC(F)F)c4)c[nH]3)N12 (stereo partly drawn) [Example 10, (S)-7-[3-Chloro-2-fluoro-6-(tetrazol-1-yl)phenyl]-3-[4-[2-(difluoromethoxy)-4-pyridyl]-1H-imidazol-2-yl]-2,3,8,8a-tetrahydro-1H-indolizin-5-one] |
| 0.0191 |  | 13.8 |  | O=C1C=C(c2c(-n3cnnn3)ccc(Cl)c2F)C[C@H]2CC[C@H](c3ncc(-c4ccnc(OC[C@@H]5COCCO5)c4F)[nH]3)N12 (relative stereo) [Example 156, (3*R,8aR)-3-(5-(2-(((S)-1,4-dioxan-2-yl)methoxy)-3-fluoropyridin-4-yl)-1H-imidazol-2-yl)-7-(3-chloro-2-fluoro-6-(1H-tetrazol-1-yl)phenyl)-2,3,8,8a-tetrahydroindolizin-5(1H)-one] |
| 0.0187 | 10.8 |  |  | O=C(Nc1cnc(C(F)(F)F)cc1-c1cnc([C@@H]2CC[C@H]3CC(c4c(-n5cnnn5)ccc(Cl)c4F)=CC(=O)N32)[nH]1)C1CC1 [Example 242, N-[4 [2-[(3S,8aS)-7-[3-Chloro-2-fluoro-6-(tetrazol-1-yl)phenyl]-5-oxo-2,3,8,8a-tetrahydro-1H-indolizin-3-yl]-1H-imidazol-5-yl]-6-(trifluoromethyl)-3-pyridyl]cyclopropanecarboxamide] |
| 0.0177 |  | 3.1 |  | COC(=O)Nc1ccccc1-c1cnc([C@@H]2CC[C@@H]3CC(c4c(-n5cnnn5)ccc(Cl)c4F)=CC(=O)N32)[nH]1 (relative stereo) [Example 301, Methyl 2-(2-((3S,8aR*)-7-(3-chloro-2-fluoro-6-(1H-tetrazol-1-yl)phenyl)-5-oxo-1,2,3,5,8,8a-hexahydroindolizin-3-yl)-1H-imidazol-4-yl)phenylcarbamate] |
| 0.0089 | 11.1 |  |  | O=C1C=C(c2c(-n3cnnn3)ccc(Cl)c2F)C[C@H]2CC[C@@H](c3ncc(-c4ccnc(-n5ccnn5)c4)[nH]3)N12 [Example 85, (3S,8aR)-7-[3-chloro-2-fluoro-6-(tetrazol-1-yl)phenyl]-3-[5-[2-(triazol-1-yl)-4-pyridyl]-1H-imidazol-2-yl]-2,3,8,8a-tetrahydro-1H-indolizin-5-one] |
| 0.0068 |  | 0.3 |  | Nc1ccc(-c2cnc([C@@H]3CC[C@@H]4CC(c5c(-n6cnnn6)ccc(Cl)c5F)=CC(=O)N43)[nH]2)c(F)n1 [Example 358, (3S,8aR)-3-[5-(6-amino-2-fluoro-3-pyridyl)-1H-imidazol-2-yl]-7-[3-chloro-2-fluoro-6-(tetrazol-1-yl)phenyl]-2,3,8,8a-tetrahydro-1H-indolizin-5-one] |
| 0.0049 | 0.3 |  |  | Nc1ccc(-c2cnc([C@@H]3CC[C@H]4CC(c5c(-n6cnnn6)ccc(Cl)c5F)=CC(=O)N43)[nH]2)c(Cl)n1 [Example 352, (3S,8aS)-3-(5-(6-Amino-2-chloropyridin-3-yl)-1H-imidazol-2-yl)-7-(3-chloro-2-fluoro-6-(1H-tetrazol-1-yl)phenyl)-2,3,8,8a-tetrahydroindolizin-5(1H)-one] |
| 0.0038 | 0.3 |  |  | Nc1ccc(-c2[nH]c([C@@H]3CC[C@@H]4CC(c5cc(Cl)ccc5-n5cnnn5)=CC(=O)N43)nc2F)c(F)n1 [Example 69, (3S,8aR)-3-(5-(6-amino-2-fluoropyridin-3-yl)-4-fluoro-1H-imidazol-2-yl)-7-(5-chloro-2-(1H-tetrazol-1-yl)phenyl)-2,3,8,8a-tetrahydroindolizin-5(1H)-one] |
| 0.0035 | 1.3 |  |  | O=C1Cc2cc(-c3cnc([C@@H]4CC[C@@H]5CC(c6c(-n7cnnn7)ccc(Cl)c6F)=CC(=O)N54)[nH]3)ccc2N1 (single isomer, unassigned) [Example 284] |
| 0.0007 |  | 0.2 |  | NC(=O)c1ccc(-c2cnc([C@@H]3CC[C@@H]4CC(c5c(-n6cnnn6)ccc(Cl)c5F)=CC(=O)N43)[nH]2)s1 (relative stereo) [Example 238, 5-(2-((3*S,8aR)-7-(3-Chloro-2-fluoro-6-(1H-tetrazol-1-yl)phenyl)-5-oxo-1,2,3,5,8,8a-hexahydroindolizin-3-yl)-1H-imidazol-5-yl)thiophene-2-carboxamide] |

— patent US20230295157A1, “3-(1H-IMIDAZOL-2-YL)-2,3,8,8A-TETRAHYDROINDOLIZIN-5(1H)-ONE DERIVATIVES USEFUL AS FACTOR XIA INHIBITORS” (JANSSEN PHARMACEUTICA NV, priority 2020, published 2023)
